Assay results from ChEMBL document CHEMBL1806455, “Synthesis, activity and pharmacokinetics of novel antibacterial 15-membered ring macrolones” (Eur J Med Chem, 2011).
Converted amounts (≈) assume the structure as drawn.

Experiments:
Format in all cases: functional
Staphylococcus aureus [1] = test: Antibacterial activity against erythromycin-sensitive Staphylococcus aureus ATCC 13709 by broth microdilution method
Streptococcus pneumoniae [2] = test: Antibacterial activity against erythromycin-sensitive Streptococcus pneumoniae SP030 by broth microdilution method
Streptococcus pyogenes [3] = test: Antibacterial activity against erythromycin-sensitive Streptococcus pyogenes 3565 by broth microdilution method
Staphylococcus aureus [4] = test: Antibacterial activity against efflux-mediated macrolide-resistant Staphylococcus aureus PK1 by broth microdilution method
Streptococcus pneumoniae [5] = test: Antibacterial activity against efflux-mediated macrolide-resistant Streptococcus pneumoniae Ci137 by broth microdilution method
Streptococcus pyogenes [6] = test: Antibacterial activity against efflux-mediated macrolide-resistance Streptococcus pyogenes 2 Finland by broth microdilution method
Staphylococcus aureus [7] = test: Antibacterial activity against inducible macrolide-lincosamide-streptogramin B resistant Staphylococcus aureus 90256 by broth microdilution method
Streptococcus pneumoniae [8] = test: Antibacterial activity against inducible macrolide-resistant, constitutive lincosamide, streptogramin-resistant Streptococcus pneumoniae 134 GR M by broth microdilution method
Streptococcus pyogenes [9] = test: Antibacterial activity against inducible macrolide-lincosamide-streptogramin B resistant Streptococcus pyogenes Finland 11 by broth microdilution method
Staphylococcus aureus [10] = test: Antibacterial activity against constitutive macrolide, lincosamide, streptogramin-resistant Staphylococcus aureus PK2 by broth microdilution method
Streptococcus pneumoniae [11] = test: Antibacterial activity against constitutive macrolide, lincosamide, streptogramin-resistant Streptococcus pneumoniae 58 spain by broth microdilution method
Streptococcus pyogenes [12] = test: Antibacterial activity against macrolide, lincosamide, streptogramin-resistant Streptococcus pyogenes 166 GR-Micro by broth microdilution method
Haemophilus influenzae = test: Antibacterial activity against Haemophilus influenzae ATCC 49247 by broth microdilution method
Moraxella catarrhalis = test: Antibacterial activity against Moraxella catarrhalis ATCC 23246 by broth microdilution method

SMILES | MIC (Staphylococcus aureus [1]) | MIC (Streptococcus pneumoniae [2]) | MIC (Streptococcus pyogenes [3]) | MIC (Staphylococcus aureus [4]) | MIC (Streptococcus pneumoniae [5]) | MIC (Streptococcus pyogenes [6]) | MIC (Staphylococcus aureus [7]) | MIC (Streptococcus pneumoniae [8]) | MIC (Streptococcus pyogenes [9]) | MIC (Staphylococcus aureus [10]) | MIC (Streptococcus pneumoniae [11]) | MIC (Streptococcus pyogenes [12]) | MIC (Haemophilus influenzae) | MIC (Moraxella catarrhalis)
CC[C@H]1OC(=O)[C@H](C)[C@@H](O[C@H]2C[C@@](C)(OC)[C@@H](OC(=O)CCOCCOc3cc4c(=O)c(C(=O)OCOC(=O)C(C)(C)C)cn(C5CC5)c4cc3Cl)[C@H](C)O2)[C@H](C)[C@@H](O[C@@H]2O[C@H](C)C[C@H](N(C)C)[C@H]2O)[C@](C)(O)C[C@@H](C)CN(C)[C@H](C)[C@@H](O)[C@]1(C)O | 1 µg/mL (≈ 0.806 µM) | ≤ 0.125 µg/mL | ≤ 0.125 µg/mL | 2 µg/mL (≈ 1.61 µM) | ≤ 0.125 µg/mL | ≤ 0.125 µg/mL | 4 µg/mL (≈ 3.22 µM) | 0.25 µg/mL (≈ 0.201 µM) | ≤ 0.125 µg/mL | > 64 µg/mL | ≤ 0.125 µg/mL | ≤ 0.125 µg/mL | 4 µg/mL (≈ 3.22 µM) | 4 µg/mL (≈ 3.22 µM)
CCCOC(=O)c1cn(C2CC2)c2cc(Cl)c(NCCOCCC(=O)O[C@H]3[C@H](C)O[C@@H](O[C@H]4[C@H](C)[C@@H](O[C@@H]5O[C@H](C)C[C@H](N(C)C)[C@H]5O)[C@](C)(O)C[C@@H](C)CN(C)[C@H](C)[C@@H](O)[C@](C)(O)[C@@H](CC)OC(=O)[C@@H]4C)C[C@@]3(C)OC)cc2c1=O | 1 µg/mL (≈ 0.856 µM) | ≤ 0.125 µg/mL | ≤ 0.125 µg/mL | 1 µg/mL (≈ 0.856 µM) | ≤ 0.125 µg/mL | ≤ 0.125 µg/mL | 1 µg/mL (≈ 0.856 µM) | ≤ 0.125 µg/mL | ≤ 0.125 µg/mL | > 64 µg/mL | ≤ 0.125 µg/mL | ≤ 0.125 µg/mL | 4 µg/mL (≈ 3.43 µM) | 2 µg/mL (≈ 1.71 µM)
CC[C@H]1OC(=O)[C@H](C)C(=O)[C@H](C)[C@@H](O[C@@H]2O[C@H](C)C[C@H](N(C)C)[C@H]2O)[C@](C)(OC)C[C@@H](C)C(=O)[C@H](C)[C@H]2N(CCCCn3cnc(-c4cccnc4)c3)C(=O)O[C@]12C [TELITHROMYCIN] | 0.125 µg/mL (≈ 0.154 µM) | ≤ 0.125 µg/mL | ≤ 0.125 µg/mL | ≤ 0.125 µg/mL | 0.25 µg/mL (≈ 0.308 µM) | 0.5 µg/mL (≈ 0.616 µM) | ≤ 0.125 µg/mL | 0.25 µg/mL (≈ 0.308 µM) | 0.06 µg/mL (≈ 0.0739 µM) | > 64 µg/mL | 0.25 µg/mL (≈ 0.308 µM) | 16 µg/mL (≈ 19.7 µM) | 2 µg/mL (≈ 2.46 µM) | ≤ 0.125 µg/mL
CC[C@H]1OC(=O)[C@H](C)[C@@H](O[C@H]2C[C@@](C)(OC)[C@@H](OC(=O)CCOCCOc3cc4c(=O)c(C(=O)OC(C)C)cn(C5CC5)c4cc3Cl)[C@H](C)O2)[C@H](C)[C@@H](O[C@@H]2O[C@H](C)C[C@H](N(C)C)[C@H]2O)[C@](C)(O)C[C@@H](C)CN(C)[C@H](C)[C@@H](O)[C@]1(C)O | 1 µg/mL (≈ 0.856 µM) | ≤ 0.125 µg/mL | ≤ 0.125 µg/mL | 4 µg/mL (≈ 3.42 µM) | ≤ 0.125 µg/mL | ≤ 0.125 µg/mL | 4 µg/mL (≈ 3.42 µM) | 0.5 µg/mL (≈ 0.428 µM) | ≤ 0.125 µg/mL | > 64 µg/mL | 0.25 µg/mL (≈ 0.214 µM) | 0.5 µg/mL (≈ 0.428 µM) | 2 µg/mL (≈ 1.71 µM) | 0.5 µg/mL (≈ 0.428 µM)
CC[C@H]1OC(=O)[C@H](C)[C@@H](O[C@H]2C[C@@](C)(OC)[C@@H](OC(=O)CCOCCNc3cc4c(=O)c(C(=O)OCCN5CCCC5)cn(C5CC5)c4cc3Cl)[C@H](C)O2)[C@H](C)[C@@H](O[C@@H]2O[C@H](C)C[C@H](N(C)C)[C@H]2O)[C@](C)(O)C[C@@H](C)CN(C)[C@H](C)[C@@H](O)[C@]1(C)O | 0.25 µg/mL (≈ 0.204 µM) | ≤ 0.125 µg/mL | ≤ 0.125 µg/mL | ≤ 0.125 µg/mL | ≤ 0.125 µg/mL | ≤ 0.125 µg/mL | 1 µg/mL (≈ 0.818 µM) | ≤ 0.125 µg/mL | ≤ 0.125 µg/mL | > 64 µg/mL | ≤ 0.125 µg/mL | ≤ 0.125 µg/mL | 4 µg/mL (≈ 3.27 µM) | ≤ 0.125 µg/mL
CC[C@H]1OC(=O)[C@H](C)[C@@H](O[C@H]2C[C@@](C)(OC)[C@@H](OC(=O)CCOCCOCCNc3ccc4c(c3)c(=O)c(C(=O)O)cn4CC)[C@H](C)O2)[C@H](C)[C@@H](O[C@@H]2O[C@H](C)C[C@H](N(C)C)[C@H]2O)[C@](C)(O)C[C@@H](C)CN(C)[C@H](C)[C@@H](O)[C@]1(C)O | 0.25 µg/mL (≈ 0.223 µM) | ≤ 0.125 µg/mL | ≤ 0.125 µg/mL | ≤ 0.125 µg/mL | ≤ 0.125 µg/mL | ≤ 0.125 µg/mL | 0.25 µg/mL (≈ 0.223 µM) | 1 µg/mL (≈ 0.89 µM) | ≤ 0.125 µg/mL | 64 µg/mL (≈ 57 µM) | ≤ 0.125 µg/mL | ≤ 0.125 µg/mL | 2 µg/mL (≈ 1.78 µM) | 2 µg/mL (≈ 1.78 µM)
CC[C@H]1OC(=O)[C@H](C)[C@@H](O[C@H]2C[C@@](C)(OC)[C@@H](OC(=O)CCOCCNc3ccc4c(c3)c(=O)c(C(=O)OCCN3CCCCC3)cn4C3CC3)[C@H](C)O2)[C@H](C)[C@@H](O[C@@H]2O[C@H](C)C[C@H](N(C)C)[C@H]2O)[C@](C)(O)C[C@@H](C)CN(C)[C@H](C)[C@@H](O)[C@]1(C)O | 0.25 µg/mL (≈ 0.208 µM) | ≤ 0.125 µg/mL | ≤ 0.125 µg/mL | 1 µg/mL (≈ 0.832 µM) | ≤ 0.125 µg/mL | ≤ 0.125 µg/mL | 4 µg/mL (≈ 3.33 µM) | ≤ 0.125 µg/mL | ≤ 0.125 µg/mL | > 64 µg/mL | ≤ 0.125 µg/mL | ≤ 0.125 µg/mL | 8 µg/mL (≈ 6.65 µM) | 1 µg/mL (≈ 0.832 µM)
